{"source": "paper PMC7976169", "about": "(Antiviral research, 2020)", "key": {"Uninfected Vero cells": {"test_system": "Uninfected Vero cells", "format": "in vitro ADME"}, "HSV": {"test_system": "HSV", "details": "cited from earlier work"}, "[1]": {"test_system": "HSV-1 KOS1.1-infected Vero cells", "experiment": "Biosynthesis of nucleoside analog triphosphate in HSV-infected cells", "format": "in vitro ADME"}, "HCMV": {"test_system": "HCMV", "details": "cited from earlier work"}, "[2]": {"test_system": "HCMV Towne-infected HFF cells", "experiment": "Biosynthesis of nucleoside analog triphosphate in HCMV-infected cells", "format": "in vitro ADME", "details": "for Other metabolites detected: five times the EC50"}, "Uninfected HFF cells": {"test_system": "Uninfected HFF cells", "experiment": "Triphosphate formation in uninfected HFF cells", "format": "in vitro ADME"}, "[3]": {"details": "in vivo; cited from earlier work"}, "[4]": {"details": "read-out: EC50 against HCMV, ref Zhou et al., 2004"}, "[5]": {"details": "read-out: EC50 vs HCMV, ref Qiu et al., 1998"}}, "note": "Where two headings read alike, the source gives them in different places.", "data": [{"smiles": "Nc1nc2c(ncn2COCCO)c(=O)[nH]1", "note": "[ACV, acyclovir]", "values": [{"measurement": "Levels of phosphates in uninfected Vero cells", "setting": "Uninfected Vero cells", "result": "no measurable level"}, {"measurement": "EC50", "setting": "HSV; reported EC50 of ACV, ref Furman et al., 1981", "result": 1000, "unit": "nM"}]}, {"smiles": "Nc1nc2c(ncn2COCCOP(=O)(O)OP(=O)(O)OP(=O)(O)O)c(=O)[nH]1", "note": "[ACV-TP]", "values": [{"measurement": "Triphosphate level at 8 hours", "setting": "[1]; HSV-infected cells, 5.0 μM ACV, 8 hours", "result": "3.8 ± 0.3", "unit": "pmol/10^6 cells"}, {"measurement": "Delay in production of triphosphate", "setting": "[1]; HSV-infected cells, delay due to lack of HSV-TK early after infection", "result": "~2", "unit": "h"}]}, {"smiles": "Nc1nc2c(ncn2/C=C2/CC2(CO)CO)c(=O)[nH]1", "note": "[FCV, Filociclovir]", "values": [{"measurement": "EC50", "setting": "HCMV; [4]", "result": 460, "unit": "nM"}, {"measurement": "Fold greater efficacy against HCMV compared to GCV", "setting": "HCMV; ref Zhou et al., 2004", "result": 10, "unit": "fold"}]}, {"smiles": "Nc1nc(O)c2ncn(COC(CO)CO)c2n1", "note": "[GCV, ganciclovir]", "values": [{"measurement": "Other metabolites detected", "setting": "[2]", "result": "no other metabolites"}, {"measurement": "Levels of phosphates in uninfected HFF cells", "setting": "Uninfected HFF cells", "result": "no measurable levels"}, {"measurement": "EC50", "setting": "HCMV; [4]", "result": 4100, "unit": "nM"}, {"measurement": "EC50", "setting": "HCMV; [5]", "result": 7400, "unit": "nM"}, {"measurement": "Incidence of neutropenia", "setting": "[3]", "result": "~ 30 % of patients"}]}, {"smiles": "Nc1nc(O)c2ncn(COC(CO)COP(=O)(O)OP(=O)(O)OP(=O)(O)O)c2n1", "note": "(stereo not drawn) [GCV-TP]", "values": [{"measurement": "Peak Triphosphate Level", "setting": "[2]; […], maximum at 120 hours", "result": "42.6 ± 3.7", "unit": "pmol/10^6 cells"}]}, {"smiles": "CCCCOc1nc(N)nc2c1ncn2C=C1CC1(CO)CO", "note": "[MBX-2168]", "values": [{"measurement": "Other metabolites detected", "setting": "[2]", "result": "no other metabolites"}, {"measurement": "Other metabolites detected", "setting": "[1]; HSV-infected Vero cells, five times the EC50", "result": "no other metabolites"}, {"measurement": "EC50", "setting": "HCMV; read-out: EC50 HCMV, ref Prichard et al., 2013", "result": 800, "unit": "nM"}, {"measurement": "EC50", "setting": "HSV; read-out: EC50 HSV, ref Prichard et al., 2013", "result": 6700, "unit": "nM"}]}, {"smiles": "Nc1ccn(C[C@@H](CO)OCP(=O)(O)O)c(=O)n1", "note": "[cidofovir]", "values": [{"measurement": "Incidence rate of nephrotoxicity", "setting": "[3]", "result": "~ 50%"}]}, {"smiles": "O=C(O)P(=O)(O)O", "note": "[foscarnet]", "values": [{"measurement": "Incidence rate of nephrotoxicity", "setting": "[3]", "result": "~ 50%"}]}, {"smiles": "Nc1nc2c(ncn2/C=C2/CC2CO)c(=O)[nH]1", "note": "(stereo not drawn) [synguanol]", "values": [{"measurement": "Other metabolites detected", "setting": "[2]", "result": "no other metabolites"}, {"measurement": "Levels of phosphates in uninfected HFF cells", "setting": "Uninfected HFF cells", "result": "no measurable levels"}, {"measurement": "EC50", "setting": "HCMV; [5]", "result": 2100, "unit": "nM"}]}]}
